In publication PMC8740726 (Proceedings of the National Academy of Sciences of the …, 2021):

Experiments:
[1] = target: T1, DPS (deoxypodophyllotoxin synthase) (Sinopodophyllum hexandrum, UniProt A0A0N9HQ36); details: co-substrate; Fe bound, bidentate, offline mode; pH 8.5
[2] = target: T1, DPS (deoxypodophyllotoxin synthase); details: coproduct at Fe active site, with Fe and (±)-yatein; pH 7.5

T1 sequence (A0A0N9HQ36 whole entry): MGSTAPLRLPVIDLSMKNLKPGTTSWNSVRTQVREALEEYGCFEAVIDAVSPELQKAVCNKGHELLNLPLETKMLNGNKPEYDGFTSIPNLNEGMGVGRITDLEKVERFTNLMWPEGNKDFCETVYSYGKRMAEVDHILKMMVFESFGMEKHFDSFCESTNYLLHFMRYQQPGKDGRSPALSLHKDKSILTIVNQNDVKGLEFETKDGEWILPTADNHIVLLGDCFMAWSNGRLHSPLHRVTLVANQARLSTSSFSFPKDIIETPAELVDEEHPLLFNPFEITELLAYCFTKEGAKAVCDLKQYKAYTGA

| Structure (SMILES) | X-ray crystal structure, 2.09 A [1] | X-ray crystal structure, 2.05 A [2] |
| --- | --- | --- |
| O=C(O)CCC(=O)C(=O)O [2OG] | Overall structure of the DPS•Fe•2OG ternary complex (Protein Data Bank identification: 7E37) | – |
| O=C(O)CCC(=O)O [succinate] | – | The substrate (−)-6a and the coproduct succinate are shown in stick representation |
